Test results from US20140343143A1, “Use of highly concentrated compositions of selected n-3 fatty acids for the treatment of central nervous system disturbances” (priority 2004, published 2014).

Key:
[1] = system: seizures in study strain rats; test: Preliminary determination of the epileptogenic ED50 of pentylenetetrazol; format: in vivo; settings: Rattus norvegicus, ip, read-out: ED50 (dose effective on 50% of rats) of the epileptogenic agent, i.p., preliminary experiment
[2] = system: amphetamine-induced hyperactivity and risk-taking behaviour; test: Amphetamine-induced behavioural model of mania, open field test in rats; settings: sodium valproate 20 mg/kg i.p., short times, preliminary experiment
[3] = system: pentylenetetrazol-induced major motor seizures; test: Pentylenetetrazol (100 mg/kg i.p.)-induced seizures in rats (Example 4); format: in vivo, rat
Description: At the end, all the groups were treated with 100 mg/kg i.p. of pentylenetetrazol, and the animals underwent the following control exams: 1) length of latency period to the first major motor seizures (tonic-clonic contractions of the limbs, trunk and head; falling; saliva and blood discharge from the mouth); 2) number of rats responding with major motor seizures (or protected from seizure); 3) mean duration of the major motor seizure (MMS); 4) number of rats presenting minor clonic contractions (MCC), such as a sudden flexion of the forelegs or extension of the rear legs; 5) number of rats who died within 20 minutes or 5 hours after pentylenetetrazol injection.

[4] = daily i.p. 2 weeks: n-3 50 mg/kg, clonazepam 5 mg/kg, or same doses combined, then pentylenetetrazol 100 mg/kg i.p., mean ± SD

C1CCc2nnnn2CC1 [pentylenetetrazol]
ED50 [1]: 70 to 75 mg/kg

CCCC(CCC)C(=O)[O-].[Na+] [sodium valproate]
effect of valproate alone at the dose used in the combination [2]: ineffective when taken alone

O=C1CN=C(c2ccccc2Cl)c2cc([N+](=O)[O-])ccc2N1 [clonazepam]
Duration of seizures [3, 4]: 25 ± 6 s
Latency to seizures [3, 4]: 203 ± 12 s
Dead animals <20′ ([3]; died within 20 minutes after pentylenetetrazol injection, n/10): 2/10
Dead animals <5 h ([3]; died within 5 hours after pentylenetetrazol injection, n/10): 4/10
Rats with MMS (n/tot) ([3]; major motor seizures, same treatment, pentylenetetrazol 100 mg/kg i.p.): 1/10
Rats with MCC (n/tot) ([3]; minor clonic contractions, same treatment, pentylenetetrazol 100 mg/kg i.p.): 3/10
